This is an account of results in patent publication US10322087B2, “Targeted liposomal delivery of cGMP analogues” (priority 2015, dated 2019).

Entries after “also recorded” stand apart in the source; their conditions may differ. Some results are limits rather than exact numbers.

One data set deals with PKG1α (Homo sapiens, UniProt Q13976). Briefly: Inhibitory constants for DF003, PKG1α. In kind it is biochemical. The source says:
(§1) The active compound DF003 is an analogue of cGMP, blocking PKG activity with high specificity. This is particularly true for the PKG1α and PKG1β isoforms, while PKG2 is less well inhibited. The inhibitory constants for the two other potential targets CNGC and protein kinase A (PKA) isoforms 1 and 2 are 2-3 log units higher (Table 2) than those for PKG isoforms. cGMP and its analogues are targeting PKG and CNGC but could potentially also interfere with PKA, PDE or even HCN channel activity. The table gives the inhibitory constants (Ki) of DF003 for these targets and (where available) the IC50 values.

The target of another data set is PKG1β (Homo sapiens, UniProt Q13976). Briefly: Inhibitory constants for DF003, PKG1β. In kind it is biochemical.
Chain of PKG1β (Q13976 1-686 isoform Q13976-2): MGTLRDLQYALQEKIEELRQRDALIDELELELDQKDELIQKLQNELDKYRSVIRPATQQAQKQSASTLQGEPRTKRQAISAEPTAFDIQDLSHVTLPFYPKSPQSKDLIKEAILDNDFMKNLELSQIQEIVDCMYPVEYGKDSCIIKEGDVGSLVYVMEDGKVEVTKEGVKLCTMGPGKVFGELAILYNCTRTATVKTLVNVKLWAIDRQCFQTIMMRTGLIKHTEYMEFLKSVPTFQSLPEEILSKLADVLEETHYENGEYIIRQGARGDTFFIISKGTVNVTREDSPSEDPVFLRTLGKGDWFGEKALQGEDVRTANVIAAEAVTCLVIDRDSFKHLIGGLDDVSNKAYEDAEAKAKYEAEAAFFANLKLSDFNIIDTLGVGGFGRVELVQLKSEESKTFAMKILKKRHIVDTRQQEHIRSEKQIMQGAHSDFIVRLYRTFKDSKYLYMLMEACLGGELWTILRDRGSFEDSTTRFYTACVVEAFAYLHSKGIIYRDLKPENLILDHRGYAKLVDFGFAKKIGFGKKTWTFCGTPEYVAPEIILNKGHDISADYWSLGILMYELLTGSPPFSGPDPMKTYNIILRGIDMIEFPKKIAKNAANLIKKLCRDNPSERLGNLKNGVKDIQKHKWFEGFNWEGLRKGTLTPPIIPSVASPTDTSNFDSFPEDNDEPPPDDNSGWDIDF
Excerpt: as §1

Another data set deals with PKG2 (Homo sapiens, UniProt Q13237). Briefly: Inhibitory constants for DF003, PKG2. In kind it is biochemical.
Chain of PKG2 (Q13237 whole entry): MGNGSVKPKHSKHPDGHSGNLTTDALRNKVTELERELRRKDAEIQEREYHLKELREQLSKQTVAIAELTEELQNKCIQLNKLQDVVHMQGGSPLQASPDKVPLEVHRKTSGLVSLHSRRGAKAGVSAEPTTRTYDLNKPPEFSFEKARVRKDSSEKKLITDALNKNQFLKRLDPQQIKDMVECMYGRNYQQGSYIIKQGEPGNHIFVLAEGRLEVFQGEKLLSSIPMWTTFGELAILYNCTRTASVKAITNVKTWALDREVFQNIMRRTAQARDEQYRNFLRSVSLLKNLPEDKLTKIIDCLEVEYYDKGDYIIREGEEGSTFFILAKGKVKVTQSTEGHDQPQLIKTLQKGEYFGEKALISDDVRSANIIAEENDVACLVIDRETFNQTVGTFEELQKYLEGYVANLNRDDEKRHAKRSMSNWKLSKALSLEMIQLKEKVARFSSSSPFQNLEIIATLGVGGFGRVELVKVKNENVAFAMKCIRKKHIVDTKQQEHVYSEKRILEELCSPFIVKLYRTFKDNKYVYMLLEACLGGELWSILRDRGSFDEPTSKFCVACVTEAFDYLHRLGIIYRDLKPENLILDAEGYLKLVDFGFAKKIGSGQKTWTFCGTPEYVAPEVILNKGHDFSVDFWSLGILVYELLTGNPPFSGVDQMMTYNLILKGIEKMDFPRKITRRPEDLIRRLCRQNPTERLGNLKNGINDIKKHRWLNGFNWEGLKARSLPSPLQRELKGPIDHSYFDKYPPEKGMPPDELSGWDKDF
Excerpt: as §1

The subject of the next data set is CNGC. Briefly: Inhibitory constants for DF003, CNGC. In kind it is biochemical.
Excerpt: as §1

A further data set addresses PKA1. Briefly: Inhibitory constants for DF003, PKA1. In kind it is biochemical.
Excerpt: as §1

In the next data set the target is PKA2. Briefly: Inhibitory constants for DF003, PKA2. In kind it is biochemical.
Excerpt: as §1

Another data set addresses PDE1B (Homo sapiens, UniProt Q01064). Briefly: Inhibitory constants for DF003, PDE1B. In kind it is biochemical.
Excerpt: as §1

Another data set has as its target PDE2 (Homo sapiens, UniProt O00408). Briefly: Inhibitory constants for DF003, PDE2. In kind it is biochemical.
Excerpt: as §1

The next data set has as its target PDE4. Briefly: Inhibitory constants for DF003, PDE4. In kind it is biochemical.
Excerpt: as §1

Another data set addresses PDE5 (Homo sapiens, UniProt O76074). Briefly: Inhibitory constants for DF003, PDE5. In kind it is biochemical.
Excerpt: as §1

The target in a further data set is PDE10 (Homo sapiens, UniProt Q9Y233). Briefly: Inhibitory constants for DF003, PDE10. In kind it is biochemical.
Chain of PDE10 (Q9Y233 whole entry): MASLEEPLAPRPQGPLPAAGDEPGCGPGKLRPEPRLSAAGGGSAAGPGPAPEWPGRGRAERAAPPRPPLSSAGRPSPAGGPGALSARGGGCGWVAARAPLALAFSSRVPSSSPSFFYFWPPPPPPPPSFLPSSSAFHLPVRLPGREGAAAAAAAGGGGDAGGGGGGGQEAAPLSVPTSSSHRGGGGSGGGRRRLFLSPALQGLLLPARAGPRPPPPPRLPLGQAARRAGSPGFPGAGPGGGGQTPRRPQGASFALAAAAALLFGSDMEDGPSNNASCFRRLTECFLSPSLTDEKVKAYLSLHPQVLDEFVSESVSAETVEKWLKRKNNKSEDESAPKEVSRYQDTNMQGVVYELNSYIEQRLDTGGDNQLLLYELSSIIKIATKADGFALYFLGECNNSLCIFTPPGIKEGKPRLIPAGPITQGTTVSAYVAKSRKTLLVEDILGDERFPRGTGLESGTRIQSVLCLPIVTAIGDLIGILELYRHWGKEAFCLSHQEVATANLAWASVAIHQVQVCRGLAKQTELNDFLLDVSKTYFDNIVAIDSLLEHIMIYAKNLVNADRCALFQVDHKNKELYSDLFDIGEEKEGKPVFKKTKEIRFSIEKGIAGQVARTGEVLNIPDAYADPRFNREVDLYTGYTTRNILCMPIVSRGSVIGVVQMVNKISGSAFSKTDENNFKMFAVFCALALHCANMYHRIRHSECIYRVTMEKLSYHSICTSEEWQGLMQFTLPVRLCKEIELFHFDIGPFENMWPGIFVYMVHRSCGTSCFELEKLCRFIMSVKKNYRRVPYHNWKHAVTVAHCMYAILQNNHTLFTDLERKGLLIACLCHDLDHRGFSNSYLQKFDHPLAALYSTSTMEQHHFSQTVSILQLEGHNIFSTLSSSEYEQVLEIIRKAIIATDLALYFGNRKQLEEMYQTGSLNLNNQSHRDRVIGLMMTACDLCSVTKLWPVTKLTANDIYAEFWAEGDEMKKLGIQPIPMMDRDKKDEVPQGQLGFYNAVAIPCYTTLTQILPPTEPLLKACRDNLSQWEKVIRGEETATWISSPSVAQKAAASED
Excerpt: as §1

In data set [1] the test system is rd1 photoreceptor-like cells. Briefly: Primary retinal cell culture, cell death (Ethidium homodimer), rd1. In kind it is cell-based, mouse. On the procedure: (§2) Different doses of DF003 and LP-DF003 were tested in vitro on a primary culture of retinal cells derived from the rd1 mouse model. About 20-30% of the primary cells can be differentiated into rod photoreceptors (Demontis et al. 2012, PLoS One. 7, e33338; Giordano et al. 2007, Mol. Vis. 13, 1842-1850). Retinal stem cells from adult wt and rd1 mice were isolated from the ciliary epithelium after treatment with 2 mg/ml dispase (20 min) followed by 1.33 mg/ml trypsin 0.67 mg/ml, hyaluronidase and 0.13 mg/ml kynurenic acid (10 min) and cultured for a week in serum free medium containing 20 ng/ml basic FGF, 2 μg/ml heparin, 0.6% glucose, N2 hormone mix in DMEM-F12 to form neurospheres (Giordano et al., 2007, supra). Retinal neurospheres were then plated on glass slides coated with extracellular matrix (ECM, Sigma) in DMEM-F12 supplemented with 20 ng/ml FGF for 4 days. […] Cell death was evaluated by staining of cells for 2 minutes with 2 μM Ethidium homodimer and counterstaining of nuclei with DAPI (4′,6-diamidino-2-phenylindole, Sigma). Slides were mounted with mowioll 4-88 (Sigma) and analysed at a Zeiss Axioskop 40 fluorescence microscope. Ethidium homodimer positive cells were counted in each slide and expressed as percentages of the total number of cells (DAPI stained) per slide. […]

The test system of data set [2] is wild-type (wt) photoreceptor-like cells. Briefly: Primary retinal cell culture, wild-type. In kind it is cell-based, mouse. The conditions noted are these: up to the highest concentration used, 50 μM. As to the method: as §2
In data set [3] the test system is organotypic rd1 retinal explant cultures. Briefly: Organotypic retinal explant culture, rd1. In kind it is cell-based, mouse. The text has this: (§3) For biochemical analyses and comparisons between models and wt tissues, we typically use material from ages corresponding to the onset of retinal degeneration. Retinal tissue is obtained from post-natal day 5 (PN5) animals, from which, after sacrifice, the eyes are enucleated and retinae cultured as retinal explants. In brief, the retina with the retinal pigment epithelium (RPE) still attached is isolated and subsequently transferred to Millicell culture dish filter inserts (Millipore AB, Solna, Sweden; PIHA03050), with the RPE layer facing the culturing membrane. The explants are then incubated in custom made R16 nutrient medium at 37° C. The nutrient medium has a volume of 1.5 ml per dish, which is replaced with fresh medium usually every second day (unless the exact culturing paradigm requires otherwise) during the culturing period.
(§4) PN5 explants were allowed to adjust to culture conditions for two days in vitro (DIV), after which they were subjected to treatments of interest. […]
(§5) In both cases the results were captured by means of a microscope and digital camera, analysed manually or semi-automatically, and this was then followed by calculations for statistical significance of the recorded data in principle as published previously (Arango-Gonzalez et al. 2014, PLoS One. 9, e112142).

A further data set concerns wt explant cultures. Briefly: Organotypic retinal explant culture, wt. In kind it is cell-based, mouse. Conditions: up to 50 μM.
Excerpt: as §3, §4, §5

The test system of data set [4] is retinal explants of rd10 model. Briefly: Organotypic retinal explant culture, rd10. In kind it is cell-based, mouse. Conditions: data not shown.
Excerpt: as §3, §4, §5

Data set [5] relates to retinal explants of rd2 mouse model. Briefly: Organotypic retinal explant culture, rd2. In kind it is cell-based. The conditions noted are these: data not shown.
Excerpt: as §3, §4, §5

For another data set, the system named is rd1 mice. Briefly: In vivo retinitis pigmentosa model, rd1 mouse. Conditions: PN14, intraperitoneal 50 mg/kg once per day, vs untreated rd1. As to the method:
Before treatment with drug or drug/DDS combinations, the animals were anesthetized with diethyl-ether. For systemic treatment, 0.9% NaCl solution containing liposomal DDS/drug formulation were injected either into the tail vein (caudal vein; intravenous; i.v.; 50 μl) or into the peritoneum (intraperitoneal; i.p.; 200 μl) of the anesthetized animal. In rd10 mice, a local intravitreal (IVT) treatment was also tested. Here, the animals received a 0.5 μl injection into the vitreous body of one eye, while the other eye was kept as untreated, contralateral control. For both i.p. and IVT treatments a liposomal formulation not containing DF003 (i.e. “empty” liposomes) was used as an additional control.
The in vivo treatment was performed initially on rd1 animals, but later extended to other animal models (rd2, rd10, cpfl1, Rho P23H). […]
At various post-treatment time-points (see Table 1), in vivo optic coherence tomography (OCT) and scanning laser ophthalmoscopy (SLO) analysis was used for direct, non-invasive imaging of retinal morphology (OCT) and of fluorescently labelled drugs (SLO) or drug/DDS combinations to determine the distribution and uptake of drug in the retina. In addition, retinal function was assessed using electroretinographic (ERG) recordings. […]

A short description of data set [6]: Pharmacokinetic study in adult rats. Conditions: rat, blood, 20 mg/kg, single injection 20 mg/kg, read-out: in vivo half-life. As to the method: A pharmacokinetic study was performed in adult rats (3 months old) that received a single injection of either free DF003 or LP-DF003 at an initial dose of 20 mg/kg.
Data set [7] relates to rd1 and rd2 photoreceptors. Conditions: in vitro and in vivo mouse retinitis pigmentosa models; cited from earlier work.

In general, Ki refers to the dissociation constant of the complex between target and ligand, obtained from inhibition or displacement. Broadly, the IC50 is the point on the concentration scale where inhibition reaches its midpoint. Read a low IC50 as greater potency in that assay. In general, half-life refers to the time in which the quantity being followed falls by half.

Chain of PKG1α (Q13976 whole entry, canonical isoform): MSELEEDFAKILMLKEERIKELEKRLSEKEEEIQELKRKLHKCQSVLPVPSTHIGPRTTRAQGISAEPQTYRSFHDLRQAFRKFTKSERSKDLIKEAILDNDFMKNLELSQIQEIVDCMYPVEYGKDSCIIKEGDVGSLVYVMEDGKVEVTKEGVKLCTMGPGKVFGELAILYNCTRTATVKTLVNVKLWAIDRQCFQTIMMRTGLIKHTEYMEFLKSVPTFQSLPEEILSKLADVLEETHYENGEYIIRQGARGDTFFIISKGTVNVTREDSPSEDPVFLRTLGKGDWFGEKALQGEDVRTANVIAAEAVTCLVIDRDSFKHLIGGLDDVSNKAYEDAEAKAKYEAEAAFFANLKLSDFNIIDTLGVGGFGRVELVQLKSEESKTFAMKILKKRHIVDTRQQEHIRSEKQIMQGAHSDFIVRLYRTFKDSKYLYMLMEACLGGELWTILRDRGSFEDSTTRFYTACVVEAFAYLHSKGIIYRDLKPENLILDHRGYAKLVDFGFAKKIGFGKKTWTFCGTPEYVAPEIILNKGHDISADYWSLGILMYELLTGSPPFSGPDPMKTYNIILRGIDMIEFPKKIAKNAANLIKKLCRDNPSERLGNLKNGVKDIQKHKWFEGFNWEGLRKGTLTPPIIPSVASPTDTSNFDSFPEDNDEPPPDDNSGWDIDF
Chain of PDE1B (Q01064 whole entry, species assumed): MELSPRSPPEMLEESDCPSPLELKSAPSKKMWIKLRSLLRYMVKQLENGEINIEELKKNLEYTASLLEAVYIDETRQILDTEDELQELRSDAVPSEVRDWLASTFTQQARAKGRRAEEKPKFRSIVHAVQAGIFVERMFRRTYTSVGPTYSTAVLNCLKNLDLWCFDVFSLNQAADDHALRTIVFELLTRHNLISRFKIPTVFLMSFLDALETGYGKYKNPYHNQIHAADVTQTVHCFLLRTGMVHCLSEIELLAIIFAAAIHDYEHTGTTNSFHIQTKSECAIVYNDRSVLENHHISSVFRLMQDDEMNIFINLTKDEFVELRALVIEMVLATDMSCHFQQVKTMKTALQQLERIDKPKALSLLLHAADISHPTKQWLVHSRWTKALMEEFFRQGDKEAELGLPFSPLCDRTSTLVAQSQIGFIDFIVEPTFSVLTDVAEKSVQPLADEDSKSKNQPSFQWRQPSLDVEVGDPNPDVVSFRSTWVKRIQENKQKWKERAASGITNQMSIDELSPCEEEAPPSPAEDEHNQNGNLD
Chain of PDE2 (O00408 whole entry): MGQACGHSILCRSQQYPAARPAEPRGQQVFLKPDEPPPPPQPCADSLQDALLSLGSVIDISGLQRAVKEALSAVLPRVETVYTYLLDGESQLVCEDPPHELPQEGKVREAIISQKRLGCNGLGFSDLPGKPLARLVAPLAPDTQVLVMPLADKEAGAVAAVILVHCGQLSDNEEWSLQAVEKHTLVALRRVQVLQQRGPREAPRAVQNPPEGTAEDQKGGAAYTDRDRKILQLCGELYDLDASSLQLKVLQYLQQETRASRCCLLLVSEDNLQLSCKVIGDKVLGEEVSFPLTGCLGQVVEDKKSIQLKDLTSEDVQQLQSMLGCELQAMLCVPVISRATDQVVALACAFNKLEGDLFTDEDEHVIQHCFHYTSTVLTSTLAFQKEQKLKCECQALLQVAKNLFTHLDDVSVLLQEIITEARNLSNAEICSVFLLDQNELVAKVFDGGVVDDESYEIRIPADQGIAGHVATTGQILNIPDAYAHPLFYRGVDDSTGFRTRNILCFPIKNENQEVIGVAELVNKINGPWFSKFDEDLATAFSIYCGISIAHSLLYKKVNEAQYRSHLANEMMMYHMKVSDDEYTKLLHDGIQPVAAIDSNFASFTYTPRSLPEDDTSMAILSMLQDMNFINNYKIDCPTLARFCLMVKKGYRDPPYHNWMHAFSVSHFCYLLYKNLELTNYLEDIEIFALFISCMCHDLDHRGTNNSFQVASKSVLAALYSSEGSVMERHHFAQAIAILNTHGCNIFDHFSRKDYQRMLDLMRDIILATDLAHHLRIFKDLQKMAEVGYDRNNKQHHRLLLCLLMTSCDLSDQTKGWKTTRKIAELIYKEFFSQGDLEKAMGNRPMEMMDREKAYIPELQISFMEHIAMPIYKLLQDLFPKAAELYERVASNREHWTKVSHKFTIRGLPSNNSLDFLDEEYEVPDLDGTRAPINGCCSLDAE

On to `O=c1c2nc(Br)n(C3OC4COP(O)(=S)OC4C3O)c2nc2[nH]c(-c3ccccc3)cn12` [DF003, Sodium, 3-[(4 aR,6R,7R,7aS)-7-hydroxy-2-oxido-2-sulfanylidene-4a,6,7,7a-tetrahydro-4H-furo [3,2-d] [1,3,2]dioxaphosphinin-6-yl]-2-bromo-6-phenyl-5H-imidazo [1,2-a] purin-9-one], for which the Ki at PKG1α was 35 nM; on PKG1β, 30 nM; at PKG2, 450 nM; at PKA1, more than 50000 nM; on PKA2, 11000 nM; at PDE1B, 2500 nM. Also, the Ki on PDE2 was 800 nM; at PDE4, 8100 nM; on PDE5 it was 4100 nM; at PDE10, 5000 nM. Further, the IC50 is 900 nM on PKG2 and 25000 nM in the data set on CNGC. Further, the “inhibitory constants for CNGC and PKA isoforms 1 and 2 higher than those for PKG isoforms” value with CNGC (CNGC and PKA1/PKA2 versus PKG isoforms) is reported as 2-3 log units. Also, in data set [1] (LP-DF003 dose expressed as corresponding DF003 concentration), the “lowest concentration that still reduced the death of rd1 photoreceptor-like cells” value is 100 nM. Also, the “protective effect on rd1 photoreceptor-like cells” value in [1] (cell culture, FIG. 1A) is “preserved the viability”. For the same molecule, the “effect on wild-type photoreceptor-like cells (toxicity)” value in data set [2] was “not affected”. Moreover, the “photoreceptor death in rd1 retinal explants” value in data set [3] (FIG. 1B) is “reduced photoreceptor death; also recorded: preserved the viability”. Besides, the “toxicity in the inner retina” value in data set [3] (organotypic retinal explants, data not shown) is “no evidence of DF003 toxicity”. Besides, the “toxicity in wt retinal explants” value with wt explant cultures is “no signs of toxicity; also recorded: not affected”. Further, in data set [4], the “photoreceptor death in rd10 retinal explants” value is listed as “prevented photoreceptor death”. Moreover, the “photoreceptor death in rd2 retinal explants” value in [5] is given as “prevented photoreceptor death”. The rd1 photoreceptor survival entry with rd1 mice is “did not show any improvement; also recorded: had no effect”. Besides, the half-life in data set [6] was approximately 15 min.
For the molecule `Nc1nc2c(nc(Br)n2[C@@H]2O[C@@H]3COP(O)(=S)O[C@H]3[C@H]2O)c(=O)[nH]1` (stereo partly drawn) [Rp-8-Br-cGMPS], the “protection of rd1 and rd2 photoreceptors” value in data set [7] is listed as “some protection”.
